Reference: PubChem BioAssay (NCI)
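The compound was tested at five concentrations on cells cultured in 96-well plates, with a 48-hour exposure period. TGI: concentration producing complete growth inhibition.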

What was measured:
Test in all cases: inhibition of tumour cell growth, NCI panel, 48 h
[1] = system: 786-0 renal
[2] = system: A549 NSCLC
[3] = system: ACHN renal
[4] = system: BT-549 breast
[5] = system: CAKI-1 renal
[6] = system: CCRF-CEM leukemia
[7] = system: COLO 205 colon
[8] = system: DU-145 prostate
[9] = system: EKVX NSCLC
[10] = system: HCC-2998 colon
[11] = system: HCT-15 colon
[12] = system: HL-60(TB) leukemia
[13] = system: HOP-62 NSCLC
[14] = system: HS 578T breast
[15] = system: IGROV1 ovarian
[16] = system: K-562 leukemia
[17] = system: KM12 colon
[18] = system: LOX IMVI melanoma
[19] = system: M14 melanoma
[20] = system: MALME-3M melanoma
[21] = system: MCF7 breast
[22] = system: MDA-MB-231 breast
[23] = system: MDA-N
[24] = system: MOLT-4 leukemia
[25] = system: NCI-H23 lung
[26] = system: NCI-H460 lung
[27] = system: NCI-H522 lung
[28] = system: NCI/ADR-RES ovarian
[29] = system: OVCAR-3 ovarian
[30] = system: OVCAR-4 ovarian
[31] = system: OVCAR-5 ovarian
[32] = system: OVCAR-8 ovarian
[33] = system: PC-3 prostate
[34] = system: RPMI-8226 leukemia
[35] = system: RXF 393 renal
[36] = system: SF-268 CNS
[37] = system: SF-295 CNS
[38] = system: SK-MEL-2 melanoma
[39] = system: SK-MEL-5 melanoma
[40] = system: SK-OV-3 ovarian
[41] = system: SN12C renal
[42] = system: SNB-19 CNS
[43] = system: SW-620 colon
[44] = system: T-47D breast
[45] = system: TK-10 renal
[46] = system: U251 CNS
[47] = system: UACC-257 melanoma
[48] = system: UACC-62 melanoma
[49] = system: UO-31 renal
[50] = system: A498 renal
[51] = system: HCT-116 colon
[52] = system: HOP-92 NSCLC
[53] = system: HT29 colon
[54] = system: MDA-MB-435
[55] = system: NCI-H226 lung
[56] = system: SK-MEL-28 melanoma
[57] = system: SNB-75 CNS
[58] = system: SR leukemia
[59] = system: SF-539 CNS

Compound: Brc1ccc(-c2[nH]c3ccccc3c2/C=N\Nc2ccc(-c3nc4ccccc4[nH]3)cc2)cc1
- TGI [1]: > 42 µM
- TGI [2]: > 100 µM
- TGI [3]: 17.3 µM
- TGI [4]: > 100 µM
- TGI [5]: > 100 µM
- TGI [6]: > 68.6 µM
- TGI [7]: 0.0834 µM
- TGI [8]: > 31.8 µM
- TGI [9]: > 52.2 µM
- TGI [10]: < 0.01 µM
- TGI [11]: > 37 µM
- TGI [12]: > 100 µM
- TGI [13]: > 68.5 µM
- TGI [14]: < 0.01 µM
- TGI [15]: > 88.3 µM
- TGI [16]: > 39.2 µM
- TGI [17]: > 100 µM
- TGI [18]: > 100 µM
- TGI [19]: > 100 µM
- TGI [20]: 24 µM
- TGI [21]: > 100 µM
- TGI [22]: 0.559 µM
- TGI [23]: < 0.01 µM
- TGI [24]: 22.1 µM
- TGI [25]: > 46.6 µM
- TGI [26]: > 51.6 µM
- TGI [27]: < 0.01 µM
- TGI [28]: > 100 µM
- TGI [29]: > 100 µM
- TGI [30]: > 100 µM
- TGI [31]: > 67.1 µM
- TGI [32]: > 58.5 µM
- TGI [33]: > 100 µM
- TGI [34]: 25.4 µM
- TGI [35]: > 43.6 µM
- TGI [36]: 6.28 µM
- TGI [37]: > 100 µM
- TGI [38]: > 35.4 µM
- TGI [39]: 1.41 µM
- TGI [40]: > 100 µM
- TGI [41]: > 100 µM
- TGI [42]: > 100 µM
- TGI [43]: > 49.5 µM
- TGI [44]: > 100 µM
- TGI [45]: > 100 µM
- TGI [46]: > 42.1 µM
- TGI [47]: > 100 µM
- TGI [48]: > 100 µM
- TGI [49]: > 100 µM

Compound: Cn1c(=O)c2c(nc3n2CCCC(=O)N3CCCCl)n(C)c1=O
- TGI [1]: > 100 µM
- TGI [50]: > 100 µM
- TGI [2]: > 100 µM
- TGI [3]: > 100 µM
- TGI [4]: > 100 µM
- TGI [5]: > 100 µM
- TGI [6]: > 100 µM
- TGI [7]: > 100 µM
- TGI [8]: > 100 µM
- TGI [9]: > 100 µM
- TGI [10]: > 100 µM
- TGI [51]: > 100 µM
- TGI [11]: > 100 µM
- TGI [12]: > 100 µM
- TGI [13]: > 100 µM
- TGI [52]: > 100 µM
- TGI [14]: > 100 µM
- TGI [53]: > 100 µM
- TGI [15]: > 100 µM
- TGI [16]: > 100 µM
- TGI [17]: > 100 µM
- TGI [18]: > 100 µM
- TGI [19]: > 100 µM
- TGI [21]: > 100 µM
- TGI [22]: > 100 µM
- TGI [54]: > 100 µM
- TGI [23]: > 100 µM
- TGI [24]: > 100 µM
- TGI [55]: > 100 µM
- TGI [25]: > 100 µM
- TGI [26]: > 100 µM
- TGI [27]: > 100 µM
- TGI [28]: > 100 µM
- TGI [29]: > 100 µM
- TGI [30]: > 100 µM
- TGI [31]: > 100 µM
- TGI [32]: > 100 µM
- TGI [33]: > 100 µM
- TGI [34]: > 100 µM
- TGI [35]: > 100 µM
- TGI [36]: > 100 µM
- TGI [37]: > 100 µM
- TGI [38]: > 100 µM
- TGI [56]: > 100 µM
- TGI [39]: > 100 µM
- TGI [40]: > 100 µM
- TGI [41]: > 100 µM
- TGI [42]: > 100 µM
- TGI [57]: > 100 µM
- TGI [58]: > 100 µM
- TGI [43]: > 100 µM
- TGI [44]: > 100 µM
- TGI [45]: > 100 µM
- TGI [46]: > 100 µM
- TGI [47]: > 100 µM
- TGI [48]: > 100 µM
- TGI [49]: > 100 µM

Compound: Cc1nc(C(N)=S)sc1C(=O)CC(=O)C(=O)Nc1ccc(Br)cc1
- TGI [1]: > 100 µM
- TGI [50]: > 100 µM
- TGI [2]: > 100 µM
- TGI [3]: > 100 µM
- TGI [4]: > 100 µM
- TGI [5]: > 100 µM
- TGI [6]: > 100 µM
- TGI [9]: > 100 µM
- TGI [51]: > 100 µM
- TGI [11]: > 100 µM
- TGI [12]: > 100 µM
- TGI [13]: > 100 µM
- TGI [52]: > 100 µM
- TGI [14]: > 100 µM
- TGI [53]: > 100 µM
- TGI [15]: > 100 µM
- TGI [16]: > 100 µM
- TGI [17]: > 100 µM
- TGI [18]: > 100 µM
- TGI [19]: > 100 µM
- TGI [20]: > 100 µM
- TGI [21]: > 100 µM
- TGI [22]: > 100 µM
- TGI [54]: > 100 µM
- TGI [23]: > 100 µM
- TGI [55]: > 100 µM
- TGI [25]: > 100 µM
- TGI [26]: > 100 µM
- TGI [27]: > 100 µM
- TGI [28]: > 100 µM
- TGI [29]: > 100 µM
- TGI [30]: > 100 µM
- TGI [31]: > 100 µM
- TGI [32]: > 100 µM
- TGI [33]: > 100 µM
- TGI [34]: > 100 µM
- TGI [35]: > 100 µM
- TGI [36]: > 100 µM
- TGI [37]: > 100 µM
- TGI [59]: > 100 µM
- TGI [38]: > 100 µM
- TGI [56]: > 100 µM
- TGI [39]: > 100 µM
- TGI [40]: > 100 µM
- TGI [41]: > 100 µM
- TGI [57]: > 100 µM
- TGI [43]: > 100 µM
- TGI [44]: > 100 µM
- TGI [45]: > 100 µM
- TGI [46]: > 100 µM
- TGI [47]: > 100 µM
- TGI [48]: > 100 µM
- TGI [49]: > 100 µM

Compound: CCOC(=O)c1c(NC(=S)Nc2ccccc2)sc2c1CCN(C)C2
- TGI [1]: > 100 µM
- TGI [50]: > 100 µM
- TGI [2]: > 100 µM
- TGI [3]: > 100 µM
- TGI [4]: > 100 µM
- TGI [5]: > 100 µM
- TGI [6]: > 100 µM
- TGI [7]: > 100 µM
- TGI [8]: > 100 µM
- TGI [9]: > 100 µM
- TGI [51]: > 100 µM
- TGI [11]: > 100 µM
- TGI [12]: > 100 µM
- TGI [13]: > 100 µM
- TGI [14]: > 100 µM
- TGI [53]: > 100 µM
- TGI [15]: > 100 µM
- TGI [16]: > 100 µM
- TGI [17]: > 100 µM
- TGI [19]: > 100 µM
- TGI [21]: > 100 µM
- TGI [22]: > 100 µM
- TGI [23]: > 100 µM
- TGI [24]: > 100 µM
- TGI [55]: > 100 µM
- TGI [25]: > 100 µM
- TGI [26]: > 100 µM
- TGI [28]: > 100 µM
- TGI [29]: > 100 µM
- TGI [31]: > 100 µM
- TGI [32]: > 100 µM
- TGI [33]: > 100 µM
- TGI [34]: > 100 µM
- TGI [35]: > 100 µM
- TGI [36]: > 100 µM
- TGI [37]: > 100 µM
- TGI [59]: > 100 µM
- TGI [38]: > 100 µM
- TGI [39]: > 100 µM
- TGI [41]: > 100 µM
- TGI [42]: > 100 µM
- TGI [44]: > 100 µM
- TGI [45]: > 100 µM
- TGI [47]: > 100 µM
- TGI [48]: > 100 µM
- TGI [49]: > 100 µM
